Reference: BindingDB's records for patent US11566007 (Revolution Medicines, 2023)

Key:
Assay in all cases: Biochemical Assay
GTPase NRas [G12C] = GTPase NRas [G12C] (Homo sapiens, UniProt P01111, G12C)
GTPase KRas [G12C] = GTPase KRas [G12C] (Homo sapiens, UniProt P01116, G12C)
From the text: (§1) The purpose of this biochemical assay is to measure the ability of test compounds to covalently label nucleotide-loaded K-Ras isoforms. […] Analysis of raw data may be carried out using Waters MassLynx MS software, with % bound calculated from the deconvoluted protein peaks for labeled and unlabeled K-Ras.

GTPase KRas [Q61H] = GTPase KRas [Q61H] (Homo sapiens, UniProt P01116, Q61H)
Sequence of GTPase KRas [Q61H] (P01116 whole entry Q61H): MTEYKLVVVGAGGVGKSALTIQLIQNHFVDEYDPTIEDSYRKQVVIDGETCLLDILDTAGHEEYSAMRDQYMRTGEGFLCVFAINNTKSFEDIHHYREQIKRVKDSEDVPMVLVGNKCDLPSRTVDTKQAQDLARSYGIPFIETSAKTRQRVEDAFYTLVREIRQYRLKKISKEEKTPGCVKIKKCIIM
From the text: as §1

GTPase NRas [Q61R] = GTPase NRas [Q61R] (Homo sapiens, UniProt P01111, Q61R)
Sequence of GTPase NRas [Q61R] (P01111 whole entry Q61R): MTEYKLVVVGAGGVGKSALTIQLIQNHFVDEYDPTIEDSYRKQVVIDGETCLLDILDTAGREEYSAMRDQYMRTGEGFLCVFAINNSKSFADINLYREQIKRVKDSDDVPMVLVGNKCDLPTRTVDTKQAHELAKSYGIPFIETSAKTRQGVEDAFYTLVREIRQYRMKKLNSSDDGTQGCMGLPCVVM

GTPase NRas [Q61K] = GTPase NRas [Q61K] (Homo sapiens, UniProt P01111, Q61K)
Sequence of GTPase NRas [Q61K] (P01111 whole entry Q61K): as the sequence (P01111 whole entry Q61R) above, with R61K counted along it

GTPase KRas [G13C] = GTPase KRas [G13C] (Homo sapiens, UniProt P01116, G13C)
Sequence of GTPase KRas [G13C] (P01116 whole entry G13C): as the sequence (P01116 whole entry Q61H) above, with G13C, H61Q counted along it
From the text: as §1

GTPase KRas [G12V] = GTPase KRas [G12V] (Homo sapiens, UniProt P01116, G12V)
Sequence of GTPase KRas [G12V] (P01116 whole entry G12V): as the sequence (P01116 whole entry Q61H) above, with G12V, H61Q counted along it
From the text: as §1

GTPase NRas = GTPase NRas (Homo sapiens, UniProt P01111)
Sequence of GTPase NRas (P01111 whole entry): as the sequence (P01111 whole entry Q61R) above, with R61Q counted along it

GTPase KRas = GTPase KRas (Homo sapiens, UniProt P01116)
Sequence of GTPase KRas (P01116 whole entry): as the sequence (P01116 whole entry Q61H) above, with H61Q counted along it
From the text: as §1

Sequence of GTPase KRas [G12C] (P01116 whole entry G12C, canonical isoform): as the sequence (P01116 whole entry Q61H) above, with G12C, H61Q counted along it
Sequence of GTPase NRas [G12C] (P01111 whole entry G12C): as the sequence (P01111 whole entry Q61R) above, with G12C, R61Q counted along it

C=CC(=O)N1CC[C@H](C(=O)N(C)[C@H](C(=O)N[C@H]2Cc3cc(O)cc(c3)-c3ccc4c(c3)c(c(-c3cccnc3COC)n4CC)CC(C)(C)COC(=O)[C@@H]3CCCN(N3)C2=O)C(C)C)C1 [US11566007, Example A16]
IC50 (GTPase NRas [G12C]): in the range around 55 nM
IC50 (GTPase KRas [G12C]): in the range around 55 nM
IC50 (GTPase KRas [Q61H]): in the range around 550 nM

C=CC(=O)N1CC[C@H](C(=O)N(C)[C@H](C(=O)N[C@H]2Cc3cccc(c3)-c3ccc4c(c3)c(c(-c3ccccc3CCOC)n4CC)CC(C)(C)COC(=O)[C@@H]3CCCN(N3)C2=O)C(C)C)C1 [US11566007, Example A24]
IC50 (GTPase NRas [G12C]): in the range around 5500 nM

C=CC(=O)N1CC[C@H](C(=O)N(C)[C@H](C(=O)N[C@H]2Cc3cc(O)cc(c3)-c3ccc4c(c3)c(c(-c3c(CCOC)cccc3OC)n4CC)CC(C)(C)COC(=O)[C@@H]3CCCN(N3)C2=O)C(C)C)C1 [US11566007, Example A80]
IC50 (GTPase NRas [Q61R]): > 10000 nM
IC50 (GTPase KRas [G12C]): in the range around 550 nM

C=CC(=O)N1CC[C@H](C(=O)N(C)[C@H](C(=O)N[C@H]2Cc3cc(O)cc(c3)-c3cc(F)c4c(c3)c(c(-c3ccccc3CCOC)n4CC)CC(C)(C)COC(=O)[C@@H]3CCCN(N3)C2=O)C(C)C)C1 [US11566007, Example A53]
IC50 (GTPase NRas [Q61K]): > 10000 nM
IC50 (GTPase KRas [G12C]): in the range around 550 nM

C=CC(=O)N1CC[C@H](C(=O)N(C)[C@H](C(=O)N[C@H]2Cc3cc(O)cc(c3)-c3ccc4c(c3)c(c(-c3ccccc3N3CCOCC3)n4CC)CC(C)(C)COC(=O)[C@@H]3CCCN(N3)C2=O)C(C)C)C1 [US11566007, Example A26]
IC50 (GTPase NRas [Q61R]): > 10000 nM
IC50 (GTPase KRas [G12C]): in the range around 550 nM

C=CC(=O)N1CC[C@H](C(=O)N(C)[C@H](C(=O)N[C@H]2Cc3cc(O)cc(c3)-c3ccc4c(c3)c(c(C3=C(COC)CCCC3)n4CC)CC(C)(C)COC(=O)[C@@H]3CCCN(N3)C2=O)C(C)C)C1 [US11566007, Example A64]
IC50 (GTPase NRas [Q61R]): in the range around 5500 nM
IC50 (GTPase KRas [G12C]): in the range around 55 nM
IC50 (GTPase KRas [G13C]): in the range around 5500 nM

C=CC(=O)N1CC[C@H](C(=O)N(C)[C@H](C(=O)N[C@H]2Cc3cc(O)cc(c3)-c3ccc4c(c3)c(c(-c3cc(F)cnc3COC)n4CC)CC(C)(C)COC(=O)[C@@H]3CCCN(N3)C2=O)C(C)C)C1 [US11566007, Example A82]
IC50 (GTPase KRas [G12V]): in the range around 550 nM

C=CC(=O)N1CC[C@H](C(=O)N(C)[C@H](C(=O)N[C@H]2Cc3cc(O)cc(c3)-c3ccc4c(c3)c(c(-c3cccnc3N3CC(OC)C3)n4CC)CC(C)(C)COC(=O)[C@@H]3CCCN(N3)C2=O)C(C)C)C1 [US11566007, Example A60]
IC50 (GTPase NRas [Q61R]): > 10000 nM
IC50 (GTPase KRas [G12C]): in the range around 550 nM

CCn1c(-c2cnccc2COC)c2c3cc(ccc31)-c1cc(O)cc(c1)C[C@H](NC(=O)[C@H](C(C)C)N(C)C(=O)[C@H]1CCN(C(=O)C#CCN(C)C)C1)C(=O)N1CCC[C@H](N1)C(=O)OCC(C)(C)C2 [US11566007, Example A88]
IC50 (GTPase NRas [G12C]): < 10 nM

CCn1c(-c2cccnc2[C@H](C)OC)c2c3cc(ccc31)-c1cc(O)cc(c1)C[C@H](NC(=O)[C@H](C(C)C)N(C)C(=O)c1nc(NC(=O)/C=C/CN(C)C)cs1)C(=O)N1CCC[C@H](N1)C(=O)OCC(C)(C)C2 [US11566007, Example A258]
IC50 (GTPase NRas [G12C]): in the range around 550 nM
IC50 (GTPase KRas [G12C]): in the range around 550 nM

C=CC(=O)N1CC[C@H](C(=O)N(C)[C@H](C(=O)N[C@H]2Cc3cc(O)cc(c3)-c3ccc4c(c3)c(c(-c3cncc(COC)c3)n4CC)CC(C)(C)COC(=O)[C@@H]3CCCN(N3)C2=O)C(C)C)C1 [US11566007, Example A83]
IC50 (GTPase NRas): in the range around 5500 nM
IC50 (GTPase KRas): in the range around 5500 nM
IC50 (GTPase KRas [G12C]): in the range around 55 nM

C=CC(=O)N1CC[C@H](C(=O)N(C)[C@H](C(=O)N[C@H]2Cc3cc(O)cc(c3)-c3ccc4c(c3)c(c(-c3cccnc3)n4CC)CC(C)(C)COC(=O)[C@@H]3CCCN(N3)C2=O)C(C)C)C1 [US11566007, Example A45]
IC50 (GTPase NRas [Q61R]): > 10000 nM
IC50 (GTPase NRas): in the range around 5500 nM

CCn1c(-c2cccnc2COC)c2c3cc(ccc31)-c1cc(O)cc(c1)C[C@H](NC(=O)[C@H](C(C)C)N(C)C(=O)[C@H]1CCN(C(=O)C#CCN3CCOCC3)C1)C(=O)N1CCC[C@H](N1)C(=O)OCC(C)(C)C2 [US11566007, Example A95]
IC50 (GTPase NRas [G12C]): < 10 nM
IC50 (GTPase KRas [G12C]): < 10 nM

C=CC(=O)N1CC[C@H](C(=O)N(C)[C@H](C(=O)N[C@H]2Cc3cc(O)cc(c3)-c3ccc4c(c3)c(c(-c3ccccc3COC)n4CC)CC(C)(C)COC(=O)[C@@H]3CCCN(N3)C2=O)C2CCCC2)C1 [US11566007, Example A27]
IC50 (GTPase KRas): in the range around 5500 nM
IC50 (GTPase KRas [G12C]): in the range around 55 nM
